Data from PubChem BioAssay (NCI).
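These data come from cells grown in 96-well plates and exposed to compound for 48 hours at five concentrations. The concentration for full growth arrest is given as TGI.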

How the values were obtained:
Experiment in all cases: NCI tumour cell line growth inhibition, 48 h
SK-MEL-2 melanoma = tested on: SK-MEL-2 melanoma
MCF7 breast = tested on: MCF7 breast
LOX IMVI melanoma = tested on: LOX IMVI melanoma
A498 renal = tested on: A498 renal
OVCAR-5 ovarian = tested on: OVCAR-5 ovarian
RXF 393 renal = tested on: RXF 393 renal
OVCAR-4 ovarian = tested on: OVCAR-4 ovarian
UACC-62 melanoma = tested on: UACC-62 melanoma
SNB-19 CNS = tested on: SNB-19 CNS
UO-31 renal = tested on: UO-31 renal
OVCAR-3 ovarian = tested on: OVCAR-3 ovarian
NCI-H460 lung = tested on: NCI-H460 lung
SF-268 CNS = tested on: SF-268 CNS
HOP-92 NSCLC = tested on: HOP-92 NSCLC
SNB-75 CNS = tested on: SNB-75 CNS
DU-145 prostate = tested on: DU-145 prostate
T-47D breast = tested on: T-47D breast
TK-10 renal = tested on: TK-10 renal
BT-549 breast = tested on: BT-549 breast
M14 melanoma = tested on: M14 melanoma

## O=[N+]([O-])c1cccc2c1[nH]c1c(-c3ccccc3)nccc12
SK-MEL-2 melanoma
  TGI: 3 µM
MCF7 breast
  TGI: > 24.8 µM
LOX IMVI melanoma
  TGI: 10.7 µM
A498 renal
  TGI: 12.9 µM
OVCAR-5 ovarian
  TGI: > 100 µM
RXF 393 renal
  TGI: 12.4 µM
OVCAR-4 ovarian
  TGI: > 33.2 µM
UACC-62 melanoma
  TGI: 9.04 µM
SNB-19 CNS
  TGI: > 100 µM
UO-31 renal
  TGI: 4.22 µM
OVCAR-3 ovarian
  TGI: 4.45 µM
NCI-H460 lung
  TGI: > 100 µM
SF-268 CNS
  TGI: > 100 µM
HOP-92 NSCLC
  TGI: 3.05 µM
SNB-75 CNS
  TGI: 7.59 µM

## O=C(Nc1nc2ccc([N+](=O)[O-])cc2s1)c1cc([N+](=O)[O-])ccc1Cl
LOX IMVI melanoma
  TGI: 5.3 µM
A498 renal
  TGI: 7.42 µM
OVCAR-5 ovarian
  TGI: 17 µM
RXF 393 renal
  TGI: 15.5 µM
OVCAR-4 ovarian
  TGI: > 100 µM
DU-145 prostate
  TGI: 31 µM
OVCAR-3 ovarian
  TGI: 9.64 µM
T-47D breast
  TGI: > 100 µM
SF-268 CNS
  TGI: 11.7 µM
TK-10 renal
  TGI: 32 µM
HOP-92 NSCLC
  TGI: 2.97 µM
BT-549 breast
  TGI: 6.83 µM
SNB-75 CNS
  TGI: 9.61 µM

## NS(=O)(=O)c1cc2c(cc1Cl)NC(C(=O)NNC(=O)c1ccncc1)=NS2(=O)=O
SK-MEL-2 melanoma
  TGI: > 100 µM
LOX IMVI melanoma
  TGI: > 100 µM
M14 melanoma
  TGI: > 100 µM
RXF 393 renal
  TGI: > 100 µM
OVCAR-4 ovarian
  TGI: > 100 µM
UACC-62 melanoma
  TGI: > 100 µM
SNB-19 CNS
  TGI: > 100 µM
UO-31 renal
  TGI: > 100 µM
OVCAR-3 ovarian
  TGI: > 100 µM
NCI-H460 lung
  TGI: > 100 µM
SF-268 CNS
  TGI: > 100 µM
TK-10 renal
  TGI: > 100 µM
HOP-92 NSCLC
  TGI: > 100 µM
SNB-75 CNS
  TGI: > 100 µM

## Cc1c(N(Cc2ccccc2)Cc2ccccc2)nc(S(C)(=O)=O)nc1S(C)(=O)=O
SK-MEL-2 melanoma
  TGI: 30.6 µM
LOX IMVI melanoma
  TGI: 3.24 µM
M14 melanoma
  TGI: 4.3 µM
OVCAR-5 ovarian
  TGI: 19.3 µM
RXF 393 renal
  TGI: 3.1 µM
UACC-62 melanoma
  TGI: 3.16 µM
SNB-19 CNS
  TGI: 26.1 µM
UO-31 renal
  TGI: 24.7 µM
OVCAR-3 ovarian
  TGI: 3.36 µM
NCI-H460 lung
  TGI: 22.1 µM
SF-268 CNS
  TGI: 3.74 µM
TK-10 renal
  TGI: 15.7 µM
HOP-92 NSCLC
  TGI: 8.4 µM

## Cn1c(=O)c(C#N)c(O)c2cc3ccccc3nc21
SK-MEL-2 melanoma
  TGI: > 100 µM
LOX IMVI melanoma
  TGI: > 100 µM
M14 melanoma
  TGI: > 100 µM
RXF 393 renal
  TGI: > 100 µM
OVCAR-4 ovarian
  TGI: > 100 µM
SNB-19 CNS
  TGI: > 100 µM
UO-31 renal
  TGI: > 100 µM
NCI-H460 lung
  TGI: > 100 µM
SF-268 CNS
  TGI: > 100 µM
TK-10 renal
  TGI: > 100 µM
HOP-92 NSCLC
  TGI: > 100 µM
SNB-75 CNS
  TGI: > 100 µM

## COc1ccc(-c2cc(=O)c3cc(OC)c(OC)cc3[nH]2)cc1OC
MCF7 breast
  TGI: > 100 µM
LOX IMVI melanoma
  TGI: > 100 µM
A498 renal
  TGI: > 100 µM
M14 melanoma
  TGI: > 100 µM
OVCAR-5 ovarian
  TGI: > 100 µM
RXF 393 renal
  TGI: > 100 µM
OVCAR-4 ovarian
  TGI: > 100 µM
UACC-62 melanoma
  TGI: > 100 µM
SNB-19 CNS
  TGI: > 100 µM
UO-31 renal
  TGI: > 100 µM
DU-145 prostate
  TGI: > 100 µM
OVCAR-3 ovarian
  TGI: > 100 µM
NCI-H460 lung
  TGI: > 100 µM
SF-268 CNS
  TGI: > 100 µM
TK-10 renal
  TGI: > 100 µM
HOP-92 NSCLC
  TGI: > 100 µM
BT-549 breast
  TGI: > 100 µM
SNB-75 CNS
  TGI: > 100 µM

## Nc1cc(O)c2cc(N=Nc3ccc(N=Nc4ccc(N=Nc5ccc6cc(S(=O)(=O)O)cc(S(=O)(=O)O)c6c5)c5ccccc45)c4cc(S(=O)(=O)O)ccc34)c(S(=O)(=O)O)cc2c1
SK-MEL-2 melanoma
  TGI: > 100 µM
MCF7 breast
  TGI: > 100 µM
LOX IMVI melanoma
  TGI: > 100 µM
A498 renal
  TGI: > 100 µM
OVCAR-5 ovarian
  TGI: > 100 µM
RXF 393 renal
  TGI: > 100 µM
OVCAR-4 ovarian
  TGI: > 100 µM
UACC-62 melanoma
  TGI: > 100 µM
SNB-19 CNS
  TGI: > 100 µM
UO-31 renal
  TGI: > 100 µM
OVCAR-3 ovarian
  TGI: > 100 µM
NCI-H460 lung
  TGI: > 100 µM
SF-268 CNS
  TGI: > 100 µM
HOP-92 NSCLC
  TGI: > 93.3 µM
SNB-75 CNS
  TGI: > 100 µM

## O=C(Cn1c(-c2ccccc2)cc2ccccc21)N1CCOCC1
SK-MEL-2 melanoma
  TGI: > 100 µM
MCF7 breast
  TGI: > 100 µM
LOX IMVI melanoma
  TGI: > 100 µM
A498 renal
  TGI: > 100 µM
M14 melanoma
  TGI: > 100 µM
OVCAR-5 ovarian
  TGI: > 100 µM
RXF 393 renal
  TGI: > 100 µM
OVCAR-4 ovarian
  TGI: > 100 µM
UACC-62 melanoma
  TGI: > 100 µM
SNB-19 CNS
  TGI: > 100 µM
UO-31 renal
  TGI: > 100 µM
DU-145 prostate
  TGI: > 100 µM
OVCAR-3 ovarian
  TGI: > 100 µM
T-47D breast
  TGI: > 100 µM
NCI-H460 lung
  TGI: > 100 µM
SF-268 CNS
  TGI: > 100 µM
TK-10 renal
  TGI: > 100 µM
HOP-92 NSCLC
  TGI: > 100 µM
